Patent US20150011508A1, “COMPOUNDS AND COMPOSITIONS AS C-KIT KINASE INHIBITORS” (priority 2011, published 2015)

The compounds below were run against T1, c-kit (Homo sapiens, UniProt P10721) (assay: Mo7e cell proliferation assay (SCF dependent proliferation)). Conditions: Table 1; human Mo7e cells stimulated with human recombinant SCF, 48 h, CellTiter Glo; 1% FBS (footnote).
T1 construct: human Mo7e cells which endogenously express c-kit; endogenous in cells; host or cells: human Mo7e cells (SCF-dependent promegakaryocytic leukemia line)
Format: cell-based
How it was run: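 SCF-dependent proliferation of human Mo7e cells, which express c-kit endogenously, was measured after 48 h at 37° C by CellTiter Glo luminescence. IC50 was taken as the concentration giving a response halfway between the baseline and maximum responses.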

T1 sequence (P10721 26-976): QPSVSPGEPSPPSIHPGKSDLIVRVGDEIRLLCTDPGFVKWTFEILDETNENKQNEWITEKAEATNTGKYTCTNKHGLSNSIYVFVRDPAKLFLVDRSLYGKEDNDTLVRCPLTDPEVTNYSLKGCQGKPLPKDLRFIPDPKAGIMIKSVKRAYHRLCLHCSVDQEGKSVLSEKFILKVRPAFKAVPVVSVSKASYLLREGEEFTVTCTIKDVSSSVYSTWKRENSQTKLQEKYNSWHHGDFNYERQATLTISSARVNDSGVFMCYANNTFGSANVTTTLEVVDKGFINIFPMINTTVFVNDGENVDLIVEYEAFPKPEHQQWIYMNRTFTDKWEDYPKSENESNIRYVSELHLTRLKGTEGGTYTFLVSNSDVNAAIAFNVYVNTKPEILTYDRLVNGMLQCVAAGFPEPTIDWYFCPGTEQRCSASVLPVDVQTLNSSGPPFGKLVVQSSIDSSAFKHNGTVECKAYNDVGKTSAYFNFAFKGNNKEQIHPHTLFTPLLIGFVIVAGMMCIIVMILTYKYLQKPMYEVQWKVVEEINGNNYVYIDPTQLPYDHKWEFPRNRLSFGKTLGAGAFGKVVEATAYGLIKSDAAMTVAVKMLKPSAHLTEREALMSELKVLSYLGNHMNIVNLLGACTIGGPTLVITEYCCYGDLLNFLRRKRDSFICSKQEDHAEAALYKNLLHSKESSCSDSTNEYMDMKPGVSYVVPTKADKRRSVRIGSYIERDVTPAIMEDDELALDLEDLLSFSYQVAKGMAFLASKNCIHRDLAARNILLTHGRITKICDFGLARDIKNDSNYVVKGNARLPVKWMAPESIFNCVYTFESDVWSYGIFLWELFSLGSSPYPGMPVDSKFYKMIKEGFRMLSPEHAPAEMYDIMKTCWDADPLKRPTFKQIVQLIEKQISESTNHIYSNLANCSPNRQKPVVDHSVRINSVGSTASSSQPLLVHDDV

Row | SMILES | IC50
1 | Cc1ccc(-c2noc(C[C@@H](O)C(F)(F)F)n2)cc1NC(=O)c1cnc2ccccn12 [F31] | 58 nM
2 | CCN(Cc1nc(-c2ccc(C)c(NC(=O)c3cnc4ccccn34)c2)no1)C(=O)OC [F23] | 59 nM
3 | CCN(CC)C(=O)CCc1nc(-c2ccc(C)c(NC(=O)c3cnc4ccccn34)c2)no1 [F4] | 67 nM
4 | Cc1ccc(-c2noc([C@H](C)NC(=O)OC(C)(C)C)n2)cc1NC(=O)c1cnc2ccccn12 [F13] | 93 nM
5 | Cc1nc(-c2ccc(C)c(NC(=O)c3cnc4ccc(-c5c(C)nn(S(C)(=O)=O)c5C)cn34)c2)no1 [F105, 6-(3,5-dimethyl-1-(methylsulfonyl)-1H-pyrazol-4-yl)-N-(2-methyl-5-(5-methyl-1,2,4-oxadiazol-3-yl)phenyl)imidazo[1,2-a]pyridine-3-carboxamide] | 38 nM
6 | Cc1nc(-c2ccc(C)c(NC(=O)c3cnc4ccc(-c5cccnc5C)cn34)c2)no1 [F82] | 53 nM
7 | Cc1nc(-c2ccc(C)c(NC(=O)c3cnc4ccc(-c5cccnc5F)cn34)c2)no1 [F92] | 16 nM
8 | CCOCCc1nc(-c2ccc(C)c(NC(=O)c3cnc4ccccn34)c2)no1 [F10] | 42 nM
9 | Cc1ccc(-c2noc(CC[C@](C)(O)C(F)(F)F)n2)cc1NC(=O)c1cnc2cc(F)ccn12 [F86] | 43 nM
10 | Cc1ccc(-c2noc(COCC(F)F)n2)cc1NC(=O)c1cnc2ccccn12 [F94, N-(5-(5-((2,2-difluoroethoxy)methyl)-1,2,4-oxadiazol-3-yl)-2-methylphenyl)imidazo[1,2-a]pyridine-3-carboxamide] | 39 nM
11 | Cc1nc(-c2ccc(C)c(NC(=O)c3cnc4ccc(-c5c(C)nn(C)c5C)cn34)c2)no1 [F100] | 19 nM
12 | CCOC(=O)Cc1nc(-c2ccc(C)c(NC(=O)c3cnc4ccccn34)c2)no1 [F7] | 87 nM
13 | Cc1ccn2c(C(=O)Nc3cc(-c4noc(NCCF)n4)ccc3C)cnc2c1 [F68] | 54 nM
14 | Cc1ccc(-c2noc(CCOCC(F)(F)F)n2)cc1NC(=O)c1cnc2ccccn12 [F28] | 7 nM
15 | Cc1ccc(-c2noc(CCC(C)(C)O)n2)cc1NC(=O)c1cnc2cc(-c3ccn(C)n3)ccn12 [F42] | 9 nM
16 | Cc1ccc(-c2noc(CCNC(=O)OC(C)(C)C)n2)cc1NC(=O)c1cnc2ccccn12 [F2] | 63 nM
17 | Cc1ccn2c(C(=O)Nc3cc(-c4noc(CC[C@](C)(O)C(F)(F)F)n4)ccc3C)cnc2c1 (single isomer, unassigned) [F75] | 64 nM
18 | Cc1ccn2c(C(=O)Nc3cc(-c4noc(CCC(O)C(F)(F)F)n4)ccc3C)cnc2c1 (stereo not shown) [F98] | 18 nM
19 | Cc1nc(-c2ccc(C)c(NC(=O)c3cnc4ccc(-c5cnn(C)c5)cn34)c2)no1 [F44] | 25 nM
20 | Cc1ccc(-c2noc(CC[C@](C)(O)C(F)(F)F)n2)cc1NC(=O)c1cnc2ccc(F)cn12 [F85] | 38 nM
21 | Cc1ccc(-c2noc(CCC#N)n2)cc1NC(=O)c1cnc2ccccn12 [F1] | 78 nM
22 | Cc1ccc(-c2noc(CC[C@@](C)(O)C(F)(F)F)n2)cc1NC(=O)c1cnc2ccc(F)cn12 [F88] | 42 nM
23 | Cc1nc(-c2ccc(C)c(NC(=O)c3cnc4ccc(-c5cnn(CCN6CCOCC6)c5)cn34)c2)no1 [F51] | 95 nM
24 | Cc1ccc(-c2noc([C@@H](C)NS(C)(=O)=O)n2)cc1NC(=O)c1cnc2ccccn12 [F18] | 98 nM
25 | Cc1ccc(-c2noc(COCC(F)(F)F)n2)cc1NC(=O)c1cnc2ccccn12 [F39] | 8 nM
26 | Cc1ccc(-c2noc(COC(C)C(F)(F)F)n2)cc1NC(=O)c1cnc2ccccn12 (stereo not shown) [F96] | 11 nM
27 | Cc1ccc(-c2noc(CCC(C)O)n2)cc1NC(=O)c1cnc2ccccn12 (stereo not shown) [F9, N-(5-(5-(3-hydroxybutyl)-1,2,4-oxadiazol-3-yl)-2-methylphenyl)imidazo[1,2-a]pyridine-3-carboxamide] | 87 nM
28 | Cc1nc(-c2ccc(C)c(NC(=O)c3cnc4ccc(-c5sc(C)nc5C)cn34)c2)no1 [F48] | 7 nM

Results, then the compound that gave them:

Row | IC50 | SMILES
29 | 13 nM | Cc1ccn2c(C(=O)Nc3cc(-c4noc(CCC(O)C(F)(F)F)n4)ccc3C)cnc2c1 (stereo not shown) [F253]
30 | 8 nM | Cc1nc(-c2ccc(C)c(NC(=O)c3cnc4ccc(-c5sc(CO)nc5C)cn34)c2)no1 [F265, 6-(2-(hydroxymethyl)-4-methylthiazol-5-yl)-N-(2-methyl-5-(5-methyl-1,2,4-oxadiazol-3-yl)phenyl)imidazo[1,2-a]pyridine-3-carboxamide]
31 | 65 nM | CNC(=O)c1sc(-c2ccc3ncc(C(=O)Nc4cc(-c5noc(C)n5)ccc4C)n3c2)nc1C [F258, N,4-dimethyl-2-(3-((2-methyl-5-(5-methyl-1,2,4-oxadiazol-3-yl)phenyl)carbamoyl)imidazo[1,2-a]pyridin-6-yl)thiazole-5-carboxamide]
32 | 54 nM | CC(=O)c1sc(-c2ccc3ncc(C(=O)Nc4cc(-c5noc(C)n5)ccc4C)n3c2)nc1C [F256, 6-(5-acetyl-4-methylthiazol-2-yl)-N-(2-methyl-5-(5-methyl-1,2,4-oxadiazol-3-yl)phenyl)imidazo[1,2-a]pyridine-3-carboxamide]

Same assay, conditions: Table 2; human Mo7e cells stimulated with human recombinant SCF, 48 h, CellTiter Glo; 1% FBS (footnote)

Row | SMILES | IC50
33 | Cc1ccc(-c2nc(C(C)C)no2)cc1NC(=O)c1cnc2ccccn12 [F107] | 119 nM
34 | COCCOC(=O)NCCc1nc(-c2ccc(C)c(NC(=O)c3cnc4ccccn34)c2)no1 [F123] | 305 nM
35 | CCNC(=O)CCc1nc(-c2ccc(C)c(NC(=O)c3cnc4ccccn34)c2)no1 [F118] | 527 nM
36 | Cc1ccc(-c2noc(CNC(=O)C(C)(C)O)n2)cc1NC(=O)c1cnc2ccccn12 [F134] | 173 nM
37 | COCc1nc(-c2ccc(C)c(NC(=O)c3cnc4ccccn34)c2)no1 [F130] | 142 nM
38 | Cc1ccc(-c2noc([C@H](C)N)n2)cc1NC(=O)c1cnc2ccccn12 [F125] | 889 nM
39 | COC(=O)NCCc1nc(-c2ccc(C)c(NC(=O)c3cnc4ccccn34)c2)no1 [F122] | 326 nM
40 | COCC(=O)NCc1nc(-c2ccc(C)c(NC(=O)c3cnc4ccccn34)c2)no1 [F132] | 319 nM
41 | Cc1ccc(-c2noc(CCCS(N)(=O)=O)n2)cc1NC(=O)c1cnc2ccccn12 [F110] | 367 nM

Results, then the compound that gave them:

Row | IC50 | SMILES
42 | 1590 nM | Cc1ccc(-c2nc(C(C)(C)C)no2)cc1NC(=O)c1cnc2ccccn12 [F225]
43 | 120 nM | Cc1ccc(-c2noc(C(C)F)n2)cc1NC(=O)c1cnc2ccccn12 (stereo not shown) [F200]
44 | 140 nM | Cc1nc(-c2ccc(C)c(NC(=O)c3cnc4ccc(-c5sc(C(=O)NCCN6CCN(C)CC6)nc5C)cn34)c2)no1 [F248]
45 | 226 nM | Cc1nc(-c2ccc(C)c(NC(=O)c3cnc4ccc(-c5csc(N6CCOCC6)n5)cn34)c2)no1 [F176]
46 | 1460 nM | Cc1ccc(-c2noc(CNC(=O)CC(C)(C)O)n2)cc1NC(=O)c1cnc2ccccn12 [F223]
47 | > 10000 nM | Cc1ccc(-c2noc(CC(F)(F)F)n2)cc1NC(=O)c1cnc2ccccn12 [F231]
48 | 182 nM | Cc1ccc(-c2noc(C(CC(F)(F)F)N(C)C)n2)cc1NC(=O)c1cnc2ccccn12 (stereo not shown) [F171]
49 | 166 nM | COC(=O)N[C@@H](C)c1nc(-c2ccc(C)c(NC(=O)c3cnc4ccccn34)c2)no1 [F135]
50 | 110 nM | COCCNc1nc(-c2ccc(C)c(NC(=O)c3cnc4cc(C)ccn34)c2)no1 [F197]
51 | 1800 nM | Cc1ccc(-c2noc(CCC(C)(C)O)n2)cc1NC(=O)c1cnc2c(N)cccn12 [F246]
52 | 193 nM | Cc1nc(-c2ccc(C)c(NC(=O)c3cnc4ccc(-c5c(C)nn(CC(=O)NCCN6CCOCC6)c5C)cn34)c2)no1 [F239]
53 | 103 nM | COCCOCc1nc(-c2ccc(C)c(NC(=O)c3cnc4ccc(OC)cn34)c2)no1 [F188]
54 | 219 nM | CCNCc1nc(-c2ccc(C)c(NC(=O)c3cnc4ccccn34)c2)no1 [F145]
55 | 198 nM | Cc1cc(F)c(-c2noc(CNC(=O)OC(C)(C)C)n2)cc1NC(=O)c1cnc2ccccn12 [F156]
56 | 795 nM | CC(=O)N[C@@H](C)c1nc(-c2ccc(C)c(NC(=O)c3cnc4ccccn34)c2)no1 [F213]
57 | 174 nM | CCC(C)(O)c1nc(-c2ccc(C)c(NC(=O)c3cnc4ccccn34)c2)no1 (stereo not shown) [F205]

Row | IC50 | SMILES
58 | 145 nM | Cc1ccc(-c2noc([C@H](C)NS(C)(=O)=O)n2)cc1NC(=O)c1cnc2ccccn12 [F136]
59 | 209 nM | Cc1nc(-c2ccc(C)c(NC(=O)c3cnc4ccc(-c5c(C)nn(CC(=O)OC(C)(C)C)c5C)cn34)c2)no1 [F234]
60 | 1030 nM | COC(=O)NCc1nc(-c2ccc(C)c(NC(=O)c3cnc4ccc(CCC(=O)OC(C)(C)C)cn34)c2)no1 [F216]
61 | 220 nM | Cc1ccc(-c2noc(C[C@@H](C)NS(C)(=O)=O)n2)cc1NC(=O)c1cnc2ccccn12 [F149]
62 | 381 nM | Cc1ccc(-c2noc(CC(=O)O)n2)cc1NC(=O)c1cnc2ccccn12 [F146]
63 | 965 nM | Cc1ccc(-c2noc(CNC(=O)N(C)C)n2)cc1NC(=O)c1cnc2ccccn12 [F164]
64 | 284 nM | Cc1ccc(Nc2noc(C(C)C)n2)cc1NC(=O)c1cnc2ccccn12 [F174]
65 | 220 nM | COC(=O)NCc1nc(-c2ccc(C)c(NC(=O)c3cnc4ccc(C#N)cn34)c2)no1 [F168]
66 | 328 nM | COCCOCc1nc(-c2ccc(F)c(NC(=O)c3cnc4ccc(-c5cnn(CC(C)(C)O)c5)cn34)c2)no1 [F182]
67 | 414 nM | COCc1n[nH]c(-c2ccc3ncc(C(=O)Nc4cc(-c5noc(C)n5)ccc4C)n3c2)n1 [F196]
68 | 394 nM | CC(C)(O)CCc1nc(-c2ccc(F)c(NC(=O)c3cnc4ccc(-c5cnn(CC(C)(C)O)c5)cn34)c2)no1 [F183]
69 | 396 nM | COCCOCc1nc(-c2cc(NC(=O)c3cnc4ccccn34)c(C)cc2F)no1 [F155]
70 | 166 nM | Cc1ccc2ncc(C(=O)Nc3cc(-c4noc(NCC(C)(C)O)n4)ccc3C)n2c1 [F193]
71 | 127 nM | Cc1nc(-c2ccc(C)c(NC(=O)c3cnc4ccc(C(N)=S)cn34)c2)no1 [F241]
72 | 213 nM | Cc1ccc(-c2noc(CNC(=O)CCOCC(F)(F)F)n2)cc1NC(=O)c1cnc2ccccn12 [F166]
73 | 2380 nM | Cc1ccc(-c2noc(CC#N)n2)cc1NC(=O)c1cnc2ccccn12 [F227]
